From US9556165B2 (priority 2012, dated 2017)
≈ marks a conversion by molar mass, not a printed value.

What was measured:
Assay type in all cases: cell-based
C. perfringens DSM756 = test: microbe, parasite or virus in culture; details: Clostridium perfringens, DSM756, read-out: strain 16 MIC, strain 16
M. catarrhalis ICB489 = test: MIC determination, broth microdilution (CLSI); details: Moraxella catarrhalis, ICB489, strain 12
strain 20 = test: MIC determination, broth microdilution (CLSI)
[1] = system: P. aeruginosa 2297 (AmpC wt); test: MIC determination, broth microdilution (CLSI); details: Pseudomonas aeruginosa, strain 7
C. freundii K21/3034 = test: MIC determination, broth microdilution (CLSI); details: Citrobacter freundii, K21/3034, strain 4
S. pneumoniae 113 = test: MIC determination, broth microdilution (CLSI); details: Streptococcus pneumoniae, 113, strain 14; read-out: strain 14 MIC
B. fragilis 6688 = test: MIC determination, broth microdilution (CLSI); details: Bacteroides fragilis, 6688, strain 15; read-out: strain 15 MIC
A. baumannii ATCC15308 = test: MIC determination, broth microdilution (CLSI); details: Acinetobacter baumannii, ATCC15308, strain 9
strain 21 = test: MIC determination, broth microdilution (CLSI)
H. influenzae ATCC 49247 = test: MIC determination, broth microdilution (CLSI); details: Haemophilus influenzae, ATCC49247, strain 13; read-out: strain 13 MIC
S. aureus 133 = test: MIC determination, broth microdilution (CLSI); details: Staphylococcus aureus, 133, strain 11; read-out: strain 11 MIC
E. coli J62 = test: MIC determination, broth microdilution (CLSI); details: Escherichia coli, J62, strain 17; read-out: strain 17 MIC
P. aeruginosa PAO1 = test: MIC determination, broth microdilution (CLSI); details: Pseudomonas aeruginosa, PAO1, strain 6
E. coli J62-TEM-3 = test: MIC determination, broth microdilution (CLSI); details: Escherichia coli, J62TEM3, read-out: strain 18 MIC, strain 18
[2] = system: P. aeruginosa 2297-con (AmpC derepressed); test: MIC determination, broth microdilution (CLSI); details: Pseudomonas aeruginosa, read-out: strain 8 MIC, strain 8
E. cloacae 34654 = test: MIC determination, broth microdilution (CLSI); details: Enterobacter cloacae, 34654, strain 3
K. pneumoniae 60 = test: MIC determination, broth microdilution (CLSI); details: Klebsiella pneumoniae, 60, strain 2
M. morganii 126/3048 = test: MIC determination, broth microdilution (CLSI); details: Morganella morganii, 126/3048, strain 5
strain 19 = test: MIC determination, broth microdilution (CLSI)
E. coli ATCC25922 = test: MIC determination, broth microdilution (CLSI); details: Escherichia coli, ATCC25922, strain 1
S. maltophilia ICB7569 = test: MIC determination, broth microdilution (CLSI); details: Stenotrophomonas maltophilia, ICB7569, strain 10

Structure (SMILES)	MIC (C. perfringens DSM756)	MIC (M. catarrhalis ICB489)	MIC (strain 20)	MIC [1]	MIC (C. freundii K21/3034)	MIC (S. pneumoniae 113)	MIC (B. fragilis 6688)	MIC (A. baumannii ATCC15308)	MIC (strain 21)	MIC (H. influenzae ATCC 49247)	MIC (S. aureus 133)	MIC (E. coli J62)	MIC (P. aeruginosa PAO1)	MIC (E. coli J62-TEM-3)	MIC [2]	MIC (E. cloacae 34654)	MIC (K. pneumoniae 60)	MIC (M. morganii 126/3048)	MIC (strain 19)	MIC (E. coli ATCC25922)	further results
CC1(C)[C@H](NC(=O)/C(=N\OCCOc2ccc(C3=NCCN3)cc2)c2csc(N)n2)C(=O)N1OS(=O)(=O)O [Example 25, (2Z)-2-(2-Amino-1,3-thiazol-4-yl)-2-({2-[4-(4,5-dihydro-1H-imidazol-2-yl)phenoxy]ethoxy}imino)-N-[(3S)-2,2-dimethyl-4-oxo-1-(sulfooxy)azetidin-3-yl]ethanamide]	2 µg/mL (≈ 3.52 µM)	≤ 0.063 µg/mL	0.125 µg/mL (≈ 0.22 µM)	4 µg/mL (≈ 7.05 µM)	0.125 µg/mL (≈ 0.22 µM)	4 µg/mL (≈ 7.05 µM)	2 µg/mL (≈ 3.52 µM)	2 µg/mL (≈ 3.52 µM)	0.125 µg/mL (≈ 0.22 µM)	≤ 0.063 µg/mL	≤ 0.063 µg/mL	0.25 µg/mL (≈ 0.44 µM)	2 µg/mL (≈ 3.52 µM)	4 µg/mL (≈ 7.05 µM)	4 µg/mL (≈ 7.05 µM)	0.25 µg/mL (≈ 0.44 µM)	0.25 µg/mL (≈ 0.44 µM)	0.125 µg/mL (≈ 0.22 µM)	0.125 µg/mL (≈ 0.22 µM)	0.125 µg/mL (≈ 0.22 µM)	MIC (S. maltophilia ICB7569): 8 µg/mL (≈ 14.1 µM)
CC1(C)[C@H](NC(=O)/C(=N\OCCOc2cnc(C(=N)N)c(O)c2)c2csc(N)n2)C(=O)N1OS(=O)(=O)O [Example 33, (2Z)-2-(2-Amino-1,3-thiazol-4-yl)-2-({2-[(6-carbamimidoyl-5-hydroxypyridin-3-yl)oxy]ethoxy}imino)-N-[(3S)-2,2-dimethyl-4-oxo-1-(sulfooxy)azetidin-3-yl]ethanamide]	2 µg/mL (≈ 3.58 µM)	0.125 µg/mL (≈ 0.224 µM)	0.25 µg/mL (≈ 0.448 µM)	16 µg/mL (≈ 28.6 µM)	0.25 µg/mL (≈ 0.448 µM)	32 µg/mL (≈ 57.3 µM)	4 µg/mL (≈ 7.16 µM)	8 µg/mL (≈ 14.3 µM)	0.5 µg/mL (≈ 0.895 µM)	≤ 0.063 µg/mL	≤ 0.063 µg/mL	0.5 µg/mL (≈ 0.895 µM)	8 µg/mL (≈ 14.3 µM)	32 µg/mL (≈ 57.3 µM)	8 µg/mL (≈ 14.3 µM)	0.5 µg/mL (≈ 0.895 µM)	0.5 µg/mL (≈ 0.895 µM)	0.25 µg/mL (≈ 0.448 µM)	0.25 µg/mL (≈ 0.448 µM)	0.25 µg/mL (≈ 0.448 µM)	MIC (S. maltophilia ICB7569): 16 µg/mL (≈ 28.6 µM)
CC1(C)[C@H](NC(=O)/C(=N\OCCOc2ccc(C(=N)NCCNC=N)cc2)c2csc(N)n2)C(=O)N1OS(=O)(=O)O [Example 38]	2 µg/mL (≈ 3.27 µM)	≤ 0.063 µg/mL	0.25 µg/mL (≈ 0.409 µM)	8 µg/mL (≈ 13.1 µM)	0.125 µg/mL (≈ 0.204 µM)	2 µg/mL (≈ 3.27 µM)	4 µg/mL (≈ 6.54 µM)	0.25 µg/mL (≈ 0.409 µM)	0.25 µg/mL (≈ 0.409 µM)	≤ 0.063 µg/mL	≤ 0.063 µg/mL	0.25 µg/mL (≈ 0.409 µM)	4 µg/mL (≈ 6.54 µM)	4 µg/mL (≈ 6.54 µM)	4 µg/mL (≈ 6.54 µM)	0.25 µg/mL (≈ 0.409 µM)	0.25 µg/mL (≈ 0.409 µM)	0.5 µg/mL (≈ 0.817 µM)	0.125 µg/mL (≈ 0.204 µM)	0.125 µg/mL (≈ 0.204 µM)	MIC (S. maltophilia ICB7569): 32 µg/mL (≈ 52.3 µM)
CC1(C)[C@H](NC(=O)/C(=N\OCCOc2ccc(C(=N)N[C@H]3CCNC3)cc2)c2csc(N)n2)C(=O)N1OS(=O)(=O)O [Example 39, (2Z)-2-(2-Amino-1,3-thiazol-4-yl)-N-[(3S)-2,2-dimethyl-4-oxo-1-(sulfooxy)azetidin-3-yl]-2-{[2-(4-{N-[(3S)-pyrrolidin-3-yl]carbamimidoyl}phenoxy)ethoxy]imino}ethanamide]	8 µg/mL (≈ 13.1 µM)	0.25 µg/mL (≈ 0.409 µM)	0.25 µg/mL (≈ 0.409 µM)	4 µg/mL (≈ 6.55 µM)	0.25 µg/mL (≈ 0.409 µM)	2 µg/mL (≈ 3.28 µM)	16 µg/mL (≈ 26.2 µM)	0.5 µg/mL (≈ 0.819 µM)	0.25 µg/mL (≈ 0.409 µM)	0.25 µg/mL (≈ 0.409 µM)	≤ 0.063 µg/mL	0.25 µg/mL (≈ 0.409 µM)	2 µg/mL (≈ 3.28 µM)	4 µg/mL (≈ 6.55 µM)	2 µg/mL (≈ 3.28 µM)	0.5 µg/mL (≈ 0.819 µM)	0.5 µg/mL (≈ 0.819 µM)	0.5 µg/mL (≈ 0.819 µM)	0.125 µg/mL (≈ 0.205 µM)	0.25 µg/mL (≈ 0.409 µM)	MIC (S. maltophilia ICB7569): 16 µg/mL (≈ 26.2 µM)
